Values quoted from earlier work in publication PMC10384408, “Anticancer Tungstenocenes with a Diverse Set of (O,O–), (O,S–) and (O,N–) Chelates—A Detailed Biological Study Using an Improved Evaluation via 3D Spheroid Models” (Pharmaceutics, 2023).

Tests used:
Conditions in all cases: MTT assay, 96 h; cited from earlier work
[1] = system: A549 (non-small cell lung carcinoma) cells
[2] = system: SW480 (colon carcinoma) cells
[3] = system: CH1/PA-1 (ovarian teratocarcinoma) cells

| SMILES | IC50 [1] [µM] | IC50 [2] [µM] | IC50 [3] [µM] |
| --- | --- | --- | --- |
| Cc1occc(=O)c1[O-].F[P-](F)(F)(F)(F)F.[Mo+4].c1cc[cH-]c1.c1cc[cH-]c1 [[Cp2Mo(L1)]PF6] | > 200 | > 200 | > 200 |
| Cc1occc(=S)c1[O-].F[P-](F)(F)(F)(F)F.[Mo+4].c1cc[cH-]c1.c1cc[cH-]c1 [[Cp2Mo(L2)]PF6] | 106 ± 15 | 55 ± 9 | 29 ± 10 |
| F[P-](F)(F)(F)(F)F.O=c1c([O-])c(-c2ccc(Cl)cc2)oc2ccccc12.[Mo+4].c1cc[cH-]c1.c1cc[cH-]c1 [[Cp2Mo(L3)]PF6] | 24 ± 4 | 5.6 ± 0.2 | 1.7 ± 0.4 |
| F[P-](F)(F)(F)(F)F.[Mo+4].[O-]c1c(-c2ccc(Cl)cc2)oc2ccccc2c1=S.c1cc[cH-]c1.c1cc[cH-]c1 [[Cp2Mo(L4)]PF6] | 5.7 ± 1 | 1.6 ± 0.2 | 0.72 ± 0.13 |
| F[P-](F)(F)(F)(F)F.O=C([O-])c1ccccn1.[Mo+4].c1cc[cH-]c1.c1cc[cH-]c1 [[Cp2Mo(L5)]PF6] | > 200 | > 200 | > 200 |
